Experimental data: ChEMBL document CHEMBL1201862, “PubChem BioAssay data set” (2004)
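Growth conditions: 96-well plates. Treatment: test compound, 48 hours, 5 concentrations. Analysis: linear interpolation between bracketing concentrations; unreached endpoints set to highest concentration. Abbreviation: GI50, concentration required for 50% inhibition of growth.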 Active and inactive are the calls of the source. No stated cut-off is given here; in the data, active = GI50 up to about 1.1 µM and inactive = higher.

How the values were obtained:
Experiment in all cases: NCI anticancer screen, dose series, 48 h
SN12C = system: SN12C
HCT-15 = system: HCT-15
MDA-MB-231 = system: MDA-MB-231
MOLT-4 = system: MOLT-4
NCI/ADR-RES = system: NCI/ADR-RES
M14 = system: M14
NCI-H226 = system: NCI-H226
A549 = system: A549
TK-10 = system: TK-10
U-251 = system: U-251
HOP-92 = system: HOP-92
PC-3 = system: PC-3
K562 = system: K562
HCC 2998 = system: HCC 2998
SK-OV-3 = system: SK-OV-3
CAKI-1 = system: CAKI-1
NCI-H23 = system: NCI-H23
UACC-62 = system: UACC-62
HOP-62 = system: HOP-62
SF-539 = system: SF-539

| Compound | GI50 (SN12C) | GI50 (HCT-15) | GI50 (MDA-MB-231) | GI50 (MOLT-4) | GI50 (NCI/ADR-RES) | GI50 (M14) | GI50 (NCI-H226) | GI50 (A549) | GI50 (TK-10) | GI50 (U-251) | GI50 (HOP-92) | GI50 (PC-3) | GI50 (K562) | GI50 (HCC 2998) | GI50 (SK-OV-3) | GI50 (CAKI-1) | GI50 (NCI-H23) | GI50 (UACC-62) | GI50 (HOP-62) | GI50 (SF-539) |
| --- | --- | --- | --- | --- | --- | --- | --- | --- | --- | --- | --- | --- | --- | --- | --- | --- | --- | --- | --- | --- |
| CCCCn1cnc2c(c(CC#N)nn2-c2ccccc2)c1=N | 70.8 µM (inactive) | 36.8 µM | 43.1 µM (inactive) | 33.1 µM (inactive) | 41.2 µM (inactive) | 53.2 µM (inactive) | 79.1 µM (inactive) | 83.8 µM (inactive) | 64.7 µM (inactive) | 37.9 µM (inactive) | 52.2 µM (inactive) | 36.8 µM (inactive) | 34 µM (inactive) | 37.1 µM (inactive) | > 100 µM (inactive) | > 100 µM (inactive) | 51.9 µM (inactive) | 20.2 µM (inactive) | > 100 µM (inactive) |  |
| CC1=C(Br)C(=O)C(C)=C(Br)C1=O.Cc1c(O)c(Br)c(C)c(O)c1Br | 1.8 µM (inactive) | 2.07 µM | 4.4 µM (inactive) | 0.783 µM (active) | 4.31 µM (inactive) | 1.67 µM (inactive) | 6.65 µM (inactive) | 18.3 µM (inactive) | 1.64 µM (inactive) | 6.47 µM (inactive) | 1.78 µM (inactive) | 2.05 µM (inactive) | 1.41 µM (inactive) |  | 15.6 µM (inactive) | 2.14 µM (inactive) | 2.21 µM (inactive) | 5.55 µM (inactive) | 12 µM (inactive) | 4.78 µM (inactive) |
| CCOC(=O)c1csc(NC(=O)CCN2CCOCC2)n1 |  | 49.7 µM | > 100 µM (inactive) | 25.9 µM (inactive) | 48.5 µM (inactive) | 76.2 µM (inactive) |  | > 100 µM (inactive) | 39.9 µM (inactive) | > 100 µM (inactive) | 69.3 µM (inactive) | 67.6 µM (inactive) | 74.8 µM (inactive) | > 100 µM (inactive) | > 100 µM (inactive) | 32 µM (inactive) | > 100 µM (inactive) | > 100 µM (inactive) | > 100 µM (inactive) | > 100 µM (inactive) |
| COC(=O)/C=C/c1cc2c(cc1-c1c(C(=O)O)cc(OC)c(OC)c1OC)OCO2 | > 10 µM (inactive) | > 10 µM | > 10 µM (inactive) | > 10 µM (inactive) | > 10 µM (inactive) | > 10 µM (inactive) |  | > 10 µM (inactive) | > 10 µM (inactive) | > 10 µM (inactive) | > 10 µM (inactive) | > 10 µM (inactive) | > 10 µM (inactive) | > 10 µM (inactive) | > 10 µM (inactive) | > 10 µM (inactive) | > 10 µM (inactive) | > 10 µM (inactive) | > 10 µM (inactive) | > 10 µM (inactive) |
| Cc1cc(C)c2cc(N)c(Cl)nc2n1 | > 100 µM (inactive) | 60.5 µM | > 100 µM (inactive) |  | > 100 µM (inactive) | > 100 µM (inactive) | > 100 µM (inactive) | > 100 µM (inactive) | > 100 µM (inactive) | 99.5 µM (inactive) | > 100 µM (inactive) | > 100 µM (inactive) |  |  | > 100 µM (inactive) | > 100 µM (inactive) | > 100 µM (inactive) | > 100 µM (inactive) |  | > 100 µM (inactive) |
| Cc1ccc(CSC(=N)Nc2ccccc2)cc1C | 18.9 µM (inactive) | 23.5 µM | 16.2 µM (inactive) | 24.2 µM (inactive) | 20.4 µM (inactive) | 19.1 µM (inactive) | 20.9 µM (inactive) | 28.3 µM (inactive) | 28.5 µM (inactive) | 16.1 µM (inactive) | 16 µM (inactive) | 22.5 µM (inactive) | 21.2 µM (inactive) |  | 24.8 µM (inactive) | 19.9 µM (inactive) | 22.9 µM (inactive) | 13.1 µM (inactive) | 23.7 µM (inactive) | 22.9 µM (inactive) |
| C[N+](C)(C)c1ncnc2c1ncn2C1CCCCO1 (stereo unspecified) | > 100 µM (inactive) |  | > 100 µM (inactive) | > 100 µM (inactive) | > 100 µM (inactive) | > 100 µM (inactive) |  | > 100 µM (inactive) | > 100 µM (inactive) | > 100 µM (inactive) | > 100 µM (inactive) | > 100 µM (inactive) | > 100 µM (inactive) |  | > 100 µM (inactive) | > 100 µM (inactive) | > 100 µM (inactive) | > 100 µM (inactive) | > 100 µM (inactive) |  |
| CCOC(=O)CC(C)C(C#N)(OP1(=O)OC(c2ccccc2)C(C)N1C)c1ccccc1 (stereo unspecified) | 58.9 µM (inactive) | 43.7 µM | 59.7 µM (inactive) | 28.8 µM (inactive) | 39.5 µM (inactive) | 68.5 µM (inactive) |  | 47 µM (inactive) | 68.7 µM (inactive) | 49 µM (inactive) | 17.8 µM (inactive) | 33.6 µM (inactive) | 32.1 µM (inactive) | 36 µM (inactive) | 86.7 µM (inactive) | 81.5 µM (inactive) | 66.1 µM (inactive) | 58.7 µM (inactive) | > 100 µM (inactive) | > 100 µM (inactive) |
| CC(=O)NCCc1c(-c2[nH]c3ccccc3c2CCNC(C)=O)[nH]c2ccccc12 | > 100 µM (inactive) | > 100 µM | 82.4 µM (inactive) | > 100 µM (inactive) | 87.1 µM (inactive) |  | > 100 µM (inactive) | > 100 µM (inactive) | 92.7 µM (inactive) | > 100 µM (inactive) | 22.2 µM (inactive) | > 100 µM (inactive) | > 100 µM (inactive) | > 100 µM (inactive) | 51.2 µM (inactive) | > 100 µM (inactive) | > 100 µM (inactive) | > 100 µM (inactive) | 85.7 µM (inactive) | 74.5 µM (inactive) |
| NS(=O)(=O)c1nnc(NC(=O)N(c2ccccc2)c2ccccc2)s1 | 15.8 µM (inactive) | 22.5 µM | 70.1 µM (inactive) | 21.1 µM (inactive) | 18.2 µM (inactive) | 15.2 µM (inactive) | 41.5 µM (inactive) | 26.3 µM (inactive) | 41.2 µM (inactive) | 43.7 µM (inactive) | 19.1 µM (inactive) | 33 µM (inactive) | 33.5 µM (inactive) |  | 59.6 µM (inactive) | 28.6 µM (inactive) | 19.1 µM (inactive) | 21.9 µM (inactive) | 27.2 µM (inactive) | 17.6 µM (inactive) |
| CSC1=N/C(=C\c2ccc(C)cc2)C(=O)N1CN1CCOCC1 | > 100 µM (inactive) | 34.1 µM | > 100 µM (inactive) | 28.9 µM (inactive) | 19.5 µM (inactive) | 95.1 µM (inactive) | 31.3 µM (inactive) | 92.3 µM (inactive) | > 100 µM (inactive) | 40.8 µM (inactive) | > 100 µM (inactive) | 58.9 µM (inactive) | 34.3 µM (inactive) |  | > 100 µM (inactive) |  | 92.7 µM (inactive) | 93.3 µM (inactive) | 89.1 µM (inactive) |  |
| Cc1cc(=O)nc(S(=O)(=O)NC(=O)Nc2cccc(Cl)c2)[nH]1 | > 100 µM (inactive) | > 100 µM | > 68.9 µM (inactive) | 32.7 µM (inactive) | > 100 µM (inactive) | > 100 µM (inactive) | > 100 µM (inactive) | > 100 µM (inactive) | > 100 µM (inactive) | 97.3 µM (inactive) | 6.93 µM (inactive) | > 30.5 µM (inactive) | > 100 µM (inactive) | > 100 µM (inactive) | > 100 µM (inactive) |  | > 100 µM (inactive) | > 100 µM (inactive) | > 100 µM (inactive) | > 100 µM (inactive) |
| c1ccc(N2N=C3N(c4ccccc4)C2N3c2ccccc2)cc1 | 48 µM (inactive) | 42.9 µM | 57.3 µM (inactive) | 16.5 µM (inactive) | > 100 µM (inactive) | 20.3 µM (inactive) |  | 47.3 µM (inactive) | 71.3 µM (inactive) | 46.8 µM (inactive) | 14.1 µM (inactive) | 44.5 µM (inactive) | 14.7 µM (inactive) | 27.6 µM (inactive) | > 100 µM (inactive) | 88.7 µM (inactive) | 37.9 µM (inactive) | 25.6 µM (inactive) | 58.2 µM (inactive) | 22.3 µM (inactive) |
| Fc1ccc2nc3n(c2c1)C(c1c(F)cccc1F)SC3 (stereo unspecified) | 77.4 µM (inactive) | 51.8 µM | 72.6 µM (inactive) | 21.3 µM (inactive) | 31.6 µM (inactive) | 49.1 µM (inactive) | > 100 µM (inactive) | 58.3 µM (inactive) | 96.4 µM (inactive) | 76.4 µM (inactive) | 46 µM (inactive) | 40.7 µM (inactive) |  | > 100 µM (inactive) | 54.8 µM (inactive) | 35.2 µM (inactive) | 55 µM (inactive) | 82.4 µM (inactive) | > 100 µM (inactive) | > 100 µM (inactive) |
| CCC/C(Cl)=N\OC(=O)Nc1ccc(F)cc1 | 16.7 µM (inactive) | 5.82 µM | 17.9 µM (inactive) | 2.47 µM (inactive) | 21.1 µM (inactive) | 14.6 µM (inactive) | 19.7 µM (inactive) | 52.8 µM (inactive) | 15.7 µM (inactive) | 18.2 µM (inactive) | 4.43 µM (inactive) | 17.3 µM (inactive) | 1.89 µM (inactive) | 17.6 µM (inactive) | > 45.1 µM (inactive) | 1.91 µM (inactive) | 20.3 µM (inactive) | 13.6 µM (inactive) | 19.2 µM (inactive) |  |
